Data reported in PubChem BioAssay AID651670 (Sanford-Burnham Center for Chemical Genomics, 2012).
Activity calls are given as the source filed them.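 Rule for the calls: active = IC50 at or below 20 µM; inactive = the rest.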

target: Fatty acid synthase (Homo sapiens) (UniProt P49327); experiment: inhibition of human FAS-TE enzyme activity – biochemical, endpoint fluorescence intensity, analogs, SAR follow-up (AID 651670); conditions: recombinant FAS-TE, OMFH fluorogenic substrate
Sequence (P49327 whole entry, looked up): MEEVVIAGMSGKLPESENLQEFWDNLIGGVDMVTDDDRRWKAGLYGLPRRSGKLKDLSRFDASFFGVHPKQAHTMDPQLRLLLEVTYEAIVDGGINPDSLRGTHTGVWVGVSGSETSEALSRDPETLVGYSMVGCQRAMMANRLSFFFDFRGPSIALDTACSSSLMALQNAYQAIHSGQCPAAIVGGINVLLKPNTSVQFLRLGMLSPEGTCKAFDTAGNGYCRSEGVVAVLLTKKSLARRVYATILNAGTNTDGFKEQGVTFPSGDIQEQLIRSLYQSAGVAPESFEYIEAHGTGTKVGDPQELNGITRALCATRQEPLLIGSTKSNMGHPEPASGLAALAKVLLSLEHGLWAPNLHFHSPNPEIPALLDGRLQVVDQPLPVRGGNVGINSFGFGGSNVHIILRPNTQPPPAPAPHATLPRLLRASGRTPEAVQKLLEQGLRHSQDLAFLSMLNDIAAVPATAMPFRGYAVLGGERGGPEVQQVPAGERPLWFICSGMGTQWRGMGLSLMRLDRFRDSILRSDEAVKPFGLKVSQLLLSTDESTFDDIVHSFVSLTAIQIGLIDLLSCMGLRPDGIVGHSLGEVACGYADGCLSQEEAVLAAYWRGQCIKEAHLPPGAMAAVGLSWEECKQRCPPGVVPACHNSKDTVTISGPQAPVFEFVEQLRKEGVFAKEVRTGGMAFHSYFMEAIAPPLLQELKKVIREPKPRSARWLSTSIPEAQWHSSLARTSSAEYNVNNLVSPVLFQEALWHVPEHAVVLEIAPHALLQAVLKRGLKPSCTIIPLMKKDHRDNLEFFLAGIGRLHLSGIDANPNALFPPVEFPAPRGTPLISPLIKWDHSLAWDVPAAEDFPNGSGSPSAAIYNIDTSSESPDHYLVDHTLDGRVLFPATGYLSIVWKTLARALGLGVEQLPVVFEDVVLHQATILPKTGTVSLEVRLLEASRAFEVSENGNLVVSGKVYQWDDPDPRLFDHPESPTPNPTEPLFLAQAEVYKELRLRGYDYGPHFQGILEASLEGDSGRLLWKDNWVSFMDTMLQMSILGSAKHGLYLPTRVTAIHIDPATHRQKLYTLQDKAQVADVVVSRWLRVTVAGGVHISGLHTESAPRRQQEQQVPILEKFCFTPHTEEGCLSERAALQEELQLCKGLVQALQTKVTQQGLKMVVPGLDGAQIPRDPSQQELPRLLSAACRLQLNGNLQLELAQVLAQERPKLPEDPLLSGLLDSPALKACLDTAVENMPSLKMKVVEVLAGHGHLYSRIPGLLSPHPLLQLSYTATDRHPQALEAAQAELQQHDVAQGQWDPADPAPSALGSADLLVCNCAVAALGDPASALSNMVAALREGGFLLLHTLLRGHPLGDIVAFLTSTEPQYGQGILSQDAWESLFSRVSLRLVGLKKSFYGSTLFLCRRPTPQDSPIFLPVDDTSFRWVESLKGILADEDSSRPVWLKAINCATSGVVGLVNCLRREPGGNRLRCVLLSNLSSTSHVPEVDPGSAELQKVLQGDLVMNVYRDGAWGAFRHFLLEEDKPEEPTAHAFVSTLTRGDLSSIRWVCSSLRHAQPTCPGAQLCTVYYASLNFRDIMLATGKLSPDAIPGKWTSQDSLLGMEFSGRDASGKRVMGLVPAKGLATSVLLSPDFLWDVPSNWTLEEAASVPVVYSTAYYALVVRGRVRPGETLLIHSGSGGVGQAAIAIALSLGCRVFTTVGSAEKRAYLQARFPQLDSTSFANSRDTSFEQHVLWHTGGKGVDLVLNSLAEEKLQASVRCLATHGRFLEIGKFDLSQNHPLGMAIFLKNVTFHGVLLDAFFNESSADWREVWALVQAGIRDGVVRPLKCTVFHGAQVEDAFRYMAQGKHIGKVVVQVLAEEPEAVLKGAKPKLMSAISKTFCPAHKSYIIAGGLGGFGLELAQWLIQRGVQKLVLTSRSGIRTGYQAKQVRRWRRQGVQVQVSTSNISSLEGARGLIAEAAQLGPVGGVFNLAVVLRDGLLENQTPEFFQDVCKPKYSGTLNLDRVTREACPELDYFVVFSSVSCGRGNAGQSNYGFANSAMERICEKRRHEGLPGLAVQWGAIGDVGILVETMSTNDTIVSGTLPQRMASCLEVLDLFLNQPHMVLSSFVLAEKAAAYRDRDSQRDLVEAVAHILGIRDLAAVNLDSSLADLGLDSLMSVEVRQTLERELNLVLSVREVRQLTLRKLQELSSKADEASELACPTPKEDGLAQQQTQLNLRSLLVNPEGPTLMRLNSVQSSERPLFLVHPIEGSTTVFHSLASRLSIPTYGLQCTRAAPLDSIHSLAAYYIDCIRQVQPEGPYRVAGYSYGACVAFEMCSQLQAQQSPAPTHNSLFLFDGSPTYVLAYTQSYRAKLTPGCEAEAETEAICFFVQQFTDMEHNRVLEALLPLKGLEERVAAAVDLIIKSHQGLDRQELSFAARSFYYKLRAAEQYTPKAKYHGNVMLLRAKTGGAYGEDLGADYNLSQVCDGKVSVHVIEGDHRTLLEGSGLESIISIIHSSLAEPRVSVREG

SMILES	IC50
COc1ccc(CN(C)C(=O)Cc2ccc(S(=O)(=O)N3CCOCC3)s2)cc1OC	> 80 µM (inactive)
O=C(Nc1nc(-c2ccc(S(=O)(=O)N3CCOCC3)cc2)cs1)c1cccs1	inactive
Cn1c(SCC(=O)Nc2ncc(C(F)(F)F)cc2Cl)nnc1-c1ccc(F)cc1	8.27 µM
CCc1ccc(CN(C)C(=O)Cc2ccc(S(=O)(=O)N3CCCC3)s2)cc1	12.9 µM
CCCCn1c(SCC(=O)Nc2ncc(C(F)(F)F)cc2Cl)nnc1-c1ccc(OC)cc1	0.67 µM
COc1ccc(-c2nnc(SCC(=O)Nc3ncc(C(F)(F)F)cc3Cl)n2C)cc1	1.96 µM
CCCn1c(SCC(=O)Nc2ncc(C(F)(F)F)cc2Cl)nnc1-c1ccncc1	inactive
Cn1c(SCC(=O)Nc2ccccc2)nnc1-c1ccc(Cl)cc1	> 80 µM (inactive)

Further lines, results first:

IC50	SMILES
> 80 µM (inactive)	Cc1ccc(NC(=O)Cc2nc(-c3ccc(S(=O)(=O)N4CCOCC4)cc3)cs2)cc1
> 80 µM (inactive)	CN(Cc1cccc(F)c1)C(=O)Cc1ccc(S(=O)(=O)N2CCOCC2)s1
0.664 µM	O=S(=O)(c1ccc(-c2csc(Cc3ccccc3)n2)cc1)N1CCOCC1
inactive	CCn1c(SCC(=O)Nc2ncc(C(F)(F)F)cc2Cl)nnc1-c1ccncc1
inactive	O=C(Nc1nc(-c2ccc(S(=O)(=O)N3CCOCC3)cc2)cs1)c1ccco1
> 80 µM (inactive)	Cc1ccccc1NC(=O)CSc1nnc(-c2ccc(Cl)cc2)n1C
0.948 µM	O=S(=O)(c1ccc(-c2csc(N3CCCC3)n2)cc1)N1CCOCC1
inactive	Cn1c(Cc2ccccc2)nnc1SCC(=O)Nc1ncc(C(F)(F)F)cc1Cl
15.3 µM	CC(=O)Nc1nc(-c2ccc(S(=O)(=O)N3CCOCC3)cc2)cs1
> 80 µM (inactive)	Cc1nnc(SCC(=O)Nc2ncc(C(F)(F)F)cc2Cl)n1-c1ccccc1
> 80 µM (inactive)	Cn1c(SCC(=O)Nc2cccc(Cl)c2)nnc1-c1ccc(Cl)cc1
